{"source": "patent US20240108740A1", "about": "“THERAPEUTIC COMPOSITIONS INCLUDING SPN10 AND USES THEREOF” (Stealth BioTherapeutics Inc., priority 2022, published 2024)", "key": {"[1]": {"test_system": "N2A cells", "assay": "Example 24: lipid peroxidation (4-HNE Michael adducts)", "format": "cell-based", "details": "t-BHP 1 mM, 3 hours", "method": "Lipid peroxidation will be evaluated by measuring 4-HNE Michael adducts. 4-HNE is one of the major products of the peroxidation of membrane polyunsaturated fatty acids. N2A cells will be seeded on a glass dish 1 day before t-BHP treatment (1 mM, 3 hours, 37° C., 5% CO2) alone or in the presence of peptide conjugates (10^−8 to 10^−10 M), aromatic-cationic peptides (an equivalent molar dose of aromatic-cationic peptide based on the concentration of the aromatic-cationic peptide administered in the peptide conjugate treatment group); SPN10(s) (an equivalent molar dose of SPN10 based on the concentration of SPN10 administered in the peptide conjugate treatment group); or SPN10(s) in combination with aromatic-cationic peptides (e.g., an equivalent molar dose of SPN10 based on the concentration of SPN10 administered in the peptide conjugate treatment group and an equivalent molar dose of aromatic-cationic peptide based on the concentration of aromatic-cationic peptide administered in the peptide conjugate treatment group). Cells will be washed twice with PBS, fixed 30 minutes with 4% paraformaldehyde in PBS at RT, and washed 3 additional times with PBS. […] Cells will be mounted in Vectashield and imaged using a Zeiss fluorescence microscope using an excitation wavelength of 460±20 nm and a longpass filter of 505 nm for emission."}, "[2]": {"test_system": "acute myocardial infarction", "assay": "Infarct size at revascularization in acute myocardial infarction patients", "format": "in vivo, human", "details": "IV at the time of reperfusion", "from_the_text": "Men and women, 18 years of age or older, who present after the onset of chest pain, and for whom the clinical decision is made to treat with a revascularization procedure (e.g., PCI or thrombolytics) will be eligible for enrollment. […] The diagnosis is made therefore purely on the basis of symptoms, clinical examination and ECG changes. […] The patient often has a history of having experienced angina, but the ECG at the time of the suspected attack may show no abnormality at all. […] Left ventricular and coronary angiography will be performed with the use of standard techniques, just before revascularization. Revascularization will be performed by PCI with the use of direct stenting. […] The primary end point is the size of the infarct as assessed by measurements of cardiac biomarkers. […] Coronary biomarkers will be measured in each patient. For example, the area under the curve (AUC) (expressed in arbitrary units) for creatine kinase and troponin I release (Beckman kit) may be measured in each patient by computerized planimetry. The principal secondary end point is the size of the infarct as measured by the area of delayed hyperenhancement that is seen on cardiac magnetic resonance imaging (MRI), assessed on day 5 after infarction. […] The images are analyzed in short axis slices covering the entire left ventricle. […]"}}, "note": "Residues, ends and D or L forms follow the SMILES beside them."}
{"smiles": "N=C(N)NCCC[C@H](NC(=O)[C@@H](N)Cc1c[nH]c2ccccc12)C(=O)N[C@@H](Cc1c[nH]c2ccccc12)C(=O)N[C@@H](CCCCN)C(N)=O", "note": "[SPN10, H-L-Trp-L-Arg-L-Trp-L-Lys-NH2] (H-WRWK-NH2)", "values": [{"measurement": "lipid peroxidation in cells treated with t-BHP", "setting": "[1]", "value": "inhibit lipid peroxidation"}, {"measurement": "infarct size versus placebo", "setting": "[2]", "value": "smaller infarct"}]}
